Data from PubChem BioAssay (NCI).
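96-well plates; 48 h exposure; 5 concentrations. Endpoints by linear interpolation between flanking doses. Not reached: highest tested concentration assigned. TGI: concentration producing complete growth inhibition.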

How the values were obtained:
Experiment in all cases: NCI anticancer screen, dose series, 48 h
SNB-75 CNS = system: SNB-75 CNS
SK-MEL-2 melanoma = system: SK-MEL-2 melanoma
LOX IMVI melanoma = system: LOX IMVI melanoma
NCI-H226 lung = system: NCI-H226 lung
XF 498 CNS = system: XF 498 CNS
SNB-19 CNS = system: SNB-19 CNS
KM20L2 colon = system: KM20L2 colon
A498 renal = system: A498 renal
OVCAR-4 ovarian = system: OVCAR-4 ovarian
SW-620 colon = system: SW-620 colon
786-0 renal = system: 786-0 renal
SF-539 CNS = system: SF-539 CNS
NCI-H522 lung = system: NCI-H522 lung
SK-MEL-5 melanoma = system: SK-MEL-5 melanoma
HOP-62 NSCLC = system: HOP-62 NSCLC
SN12C renal = system: SN12C renal
M14 melanoma = system: M14 melanoma
HOP-18 NSCLC = system: HOP-18 NSCLC
RXF 393 renal = system: RXF 393 renal
DLD-1 colon = system: DLD-1 colon
MALME-3M melanoma = system: MALME-3M melanoma
NCI-H23 lung = system: NCI-H23 lung
LXFL 529 NSCLC = system: LXFL 529 NSCLC
HOP-92 NSCLC = system: HOP-92 NSCLC
A549 NSCLC = system: A549 NSCLC
OVCAR-5 ovarian = system: OVCAR-5 ovarian
HCT-116 colon = system: HCT-116 colon
CCRF-CEM leukemia = system: CCRF-CEM leukemia
K-562 leukemia = system: K-562 leukemia
RXF-631 renal = system: RXF-631 renal
HT29 colon = system: HT29 colon
HCC-2998 colon = system: HCC-2998 colon
COLO 205 colon = system: COLO 205 colon
EKVX NSCLC = system: EKVX NSCLC
SK-OV-3 ovarian = system: SK-OV-3 ovarian
IGROV1 ovarian = system: IGROV1 ovarian
SNB-78 CNS = system: SNB-78 CNS
OVCAR-3 ovarian = system: OVCAR-3 ovarian
NCI-H460 lung = system: NCI-H460 lung
U251 CNS = system: U251 CNS
UACC-62 melanoma = system: UACC-62 melanoma
HCT-15 colon = system: HCT-15 colon
OVCAR-8 ovarian = system: OVCAR-8 ovarian
TK-10 renal = system: TK-10 renal
MOLT-4 leukemia = system: MOLT-4 leukemia
DMS 273 small cell lung = system: DMS 273 small cell lung
ACHN renal = system: ACHN renal
DMS 114 small cell lung = system: DMS 114 small cell lung
UO-31 renal = system: UO-31 renal
SF-295 CNS = system: SF-295 CNS
KM12 colon = system: KM12 colon
UACC-257 melanoma = system: UACC-257 melanoma
SK-MEL-28 melanoma = system: SK-MEL-28 melanoma
M19-MEL melanoma = system: M19-MEL melanoma

## N#CC(C(=O)/C(=N/NC(=O)c1ccccc1O)C(C#N)c1ccc(Br)cc1)c1ccc(Br)cc1 (centres undefined)
SNB-75 CNS
  TGI: 9.98 µM
SK-MEL-2 melanoma
  TGI: 25 µM
LOX IMVI melanoma
  TGI: 23 µM
NCI-H226 lung
  TGI: 19.1 µM
XF 498 CNS
  TGI: 26.6 µM
SNB-19 CNS
  TGI: 24.3 µM
KM20L2 colon
  TGI: 29.2 µM
A498 renal
  TGI: 26.8 µM
OVCAR-4 ovarian
  TGI: 29.4 µM
SW-620 colon
  TGI: 18.1 µM
786-0 renal
  TGI: 27 µM
SF-539 CNS
  TGI: 25.3 µM
NCI-H522 lung
  TGI: 27.7 µM
SK-MEL-5 melanoma
  TGI: 21.5 µM
HOP-62 NSCLC
  TGI: 29.5 µM
SN12C renal
  TGI: 21.9 µM
M14 melanoma
  TGI: 29 µM
HOP-18 NSCLC
  TGI: 20.5 µM
RXF 393 renal
  TGI: 16 µM
DLD-1 colon
  TGI: 25.6 µM
MALME-3M melanoma
  TGI: 24.6 µM
NCI-H23 lung
  TGI: 16.4 µM
LXFL 529 NSCLC
  TGI: 13.4 µM
HOP-92 NSCLC
  TGI: 31.1 µM
A549 NSCLC
  TGI: 39.9 µM
OVCAR-5 ovarian
  TGI: 29.1 µM
HCT-116 colon
  TGI: 26.6 µM
CCRF-CEM leukemia
  TGI: 76.4 µM
K-562 leukemia
  TGI: > 100 µM
RXF-631 renal
  TGI: 28.5 µM
HT29 colon
  TGI: 33.9 µM
HCC-2998 colon
  TGI: 24.7 µM
COLO 205 colon
  TGI: 30.1 µM
EKVX NSCLC
  TGI: 30 µM
SK-OV-3 ovarian
  TGI: > 100 µM
IGROV1 ovarian
  TGI: 33.3 µM
SNB-78 CNS
  TGI: 25.5 µM
OVCAR-3 ovarian
  TGI: 26.4 µM
NCI-H460 lung
  TGI: 40 µM
U251 CNS
  TGI: 23.7 µM
UACC-62 melanoma
  TGI: 28.2 µM
HCT-15 colon
  TGI: 25.5 µM
OVCAR-8 ovarian
  TGI: 19.8 µM
TK-10 renal
  TGI: 39.1 µM
MOLT-4 leukemia
  TGI: 44 µM
DMS 273 small cell lung
  TGI: 26.8 µM
ACHN renal
  TGI: 26.7 µM
DMS 114 small cell lung
  TGI: 33 µM
UO-31 renal
  TGI: 26.1 µM
SF-295 CNS
  TGI: 28.6 µM
KM12 colon
  TGI: 25.5 µM
UACC-257 melanoma
  TGI: 29.5 µM
SK-MEL-28 melanoma
  TGI: 28.2 µM
M19-MEL melanoma
  TGI: 25.2 µM
